Where two headings read alike, the source gives them in different places.

In test [1] the test system is HPV-16 immortalized human keratinocyte cell line. Put plainly: Cell line test (MTT), keratinocyte proliferation. In kind it is cell-based. The settings on record: for anti-proliferative activity (in words): HPV-16 immortalized keratinocyte proliferation; for IC50: read-out: MTT assay IG50. An excerpt:
3-[4′,5′-Dimethylthiazol-2′-yl]-2,5-diphenyltetrazolium bromide (MTT), dimethyl sulphoxide (DMSO), isopropranol, foetal calf serum, and trypan blue were purchased from Sigma-Aldrich. Trypsin 250 was purchased from DIFCO. Ethylenediaminetetraacetic acid (EDTA), glucose, sodium phenol red, sodium chloride, potassium chloride, sodium hydrogen carbonate, potassium dihydrogen phosphate, and disodium hydrogen phosphate were purchased from BDH. Keratinocyte-SFM was purchased from GIBCO. For spectroscopic measurements, MRX Microplate Reader was used, which was controlled by Revelation Version 3.04.
The following solutions were prepared for use in the cell line test (MTT). • 1. Sodium chloride (8 g), potassium chloride (0.2 g), disodium hydrogen phosphate (1.15 g) and potassium dihydrogen phosphate (0.2 g) were dissolved in deionized water (1 L). This PBS solution was warmed to 37° C. at the time of use. • 2. Trypsin 250 (2.5 g), EDTA (0.2 g), glucose (1.0 g), potassium chloride (0.4 g), sodium chloride (8.0 g), sodium phenol red (0.002 g), and sodium hydrogen carbonate (0.58 g) were dissolved in deionized water (1 L). This solution was warmed to 37° C. at the time of use. • 3. Trypsin inhibitor solution was created by using feotal calf (1 ml) and was diluted in 100 ml of PBS. • 4. MTT powder (0.125 g) was dissolved in PBS buffer (25 ml) to give 5 mg/ml of MTT stock solution, which was stored at −20° C. and wrapped in foil to protect from light to create MTT stock solution. • 5. MTT stock solution was defrosted and diluted 1 in 10 in PBS buffer to give 0.5 mg/ml of working solution, which was prepared at the time of use to create an MTT working solution. • 5. Trypan blue solution was created by dissolving Trypan blue (0.04 g) in deionized water (10 ml).
The cell culture consisted of an HPV-16 immortalized human keratinocyte cell line from American Type Culture Collection (ATCC).
Cells were cultured in Serum-Free Keratinocyte Medium (Keratinocyte-SFM) supplemented with recombinant epidermal growth factor (rEGF) and bovine pituitary extract (BPE) in a T-75 flask under conditions of 5% C02 at 37° C. Fluid in the flask was changed with fresh complete medium every 3 days.
When cells grew to 60-80% confluence as determined under a microscope, the flask was washed with PBS. Small amount of trypsin-EDTA solution (1-2 ml) was added to the flask and incubated for 5 minutes at 37° C. When approximately 90% of the cells were dislodged, trypsin inhibitor solution (10 ml) was added to stop trypsin reaction. The cells were spun at 500 rpm for 10 minutes at room temperature. The cell pellet was gently resuspended in 10 ml of media. The basal cells were counted with a haemocytometer by adding trypan blue solution to determine viable cells. The cells were adjusted the density to 1×10^5 cells/mL in media.
A stock solution of each compound was prepared by dissolving compound (20 mg) in DMSO (1 ml), to give 20 mg/mL of stock solution.
A working solution was prepared by diluting a stock solution (20 μl) into media (1.98 ml) to give 200 μg/mL of working solution.
The following steps were performed to carry out the MMT experiment. 100 μl of resuspended cell suspension was added to test wells in 96-well plate, omitting column 11. Media was aspirated from each well after plate was incubated for 24 hours at 37° C., 5% CO2, then wells were washed with PBS. 100 μl of media containing 1% DMSO was added to each test well, omitting column 2. 200 μl of working solution of compound was added to each the wells, B2 to G2. 100 μl of solution was transferred to perform serial dilutions across the plate from column 2 up to column 9, and 100 μl of solution was discard from column 9. The plate was incubated for 3 days at 37° C., 5% C02. Media was removed, and wells were washed with PBS. Then 200 μl of MTT working solution was added to each well. After the plate was incubated for 2 hours at 37° C., MTT solution was removed and wells were washed with PBS. […]
A general note: Tetrazolium assays rely on reduction of a dye to a coloured formazan, in cell work by metabolically active cells.

The subject of test [2] is lipid peroxidation in bovine brain extract liposomes (hydroxyl radicals). Put plainly: Antioxidant test, TBA assay (lipid peroxidation). In kind it is biochemical. The settings on record: for IC50: brain extract liposomes, FeCl3/ascorbic acid, 37° C. 30 min, absorbance 532 nm; for antioxidant activity (in words): scavenging hydroxyl radicals, protection against lipid peroxidation. The protocol: Ascorbic acid and propylgallate were purchased from Aldrich. N-Butanol and ethanol were purchased from BDH. Butylated hydroxytoluene (BHT), bovine brain extract, FeCl3, thiobarbituric acid (TBA) and PBS (phosphate buffered saline) tablets were purchased from Sigma. For spectroscopic measurements, a UNICAM UVNIS Spectrometer (UV2) was used. A well-controlled water bath was utilized for incubating the test system at the required temperatures. Plastic falcon tubes were used to accommodate the assay. Accurate pipettes were used to dispense the reagents.
The following liposomes and reagents were prepared in order to carry out the experiments. • 1. Brain extract (50 mg) was weighed into a clean universal container. About 7 glass balls and 10 cm^3 of PBS were added. The mixture was sonicated in an ice-water bath until the lipid was suspended and the suspension was homogeneous and milky in appearance. The suspension was kept cool during the sonication, although care was taken not to overfill the bath with ice as the sonication becomes relatively ineffective. • 2. Ascorbic acid (0.0176 g) was dissolved in deionised water and diluted in 100 cm^3 of volumetric flask. • 3. Ferric chloride hexahydrate (0.0270 g) was dissolved in deionized water and diluted in 100 cm^3 of volumetric flask. • 4. Sodium hydroxide (1 g) was dissolved in 500 cm^3 of deionized water. • 5. Phosphate buffered saline was prepared (PBS, pH=7.4). • 6. HCl (338 cm^3, 37%) was diluted with 162 cm^3 deionized water to give 500 cm^3 of 25% HCl. • 7. BHT (5 g) was dissolved in 250 cm^3 ethanol. • 8. TBA (5 g) was added to 500 cm^3, 50 mM NaOH, and the solution was heated with stirring to dissolve all the TBA. • 9. PG (0.1061 g) was dissolved in 500 cm^3 deionized water. • 10. A stock solution of test compound at 10 mg/cm^3 was prepared, the concentration depended on the estimated activity of the substance, and serial dilutions were made to obtain 5.0, 2.5, 1.25, 0.625, 0.3125 and 0.15625 mg/cm^3. The stock solution and these six dilutions were screened in the lipid peroxidation—TEA test, in attempt to obtain a dose response curve for antioxidant efficacy against concentration for the substance.
Sixty-eight centrifuge tubes were numbered. • 1. Test substance (0.1 cm^3) was added to tubes; 10 mg/cm^3 to No. 13-20 of tubes, 5 mg/cm^3 to No. 21-28, 2.5 mg/cm^3 to No. 29-36, 1.25 mg/cm^3 to No. 37-44, 0.625 mg/cm^3 to No. 45-52, 0.3125 mg/cm^3 to No. 53-60, 0.15625 mg/cm^3 to No. 61-68. • 2. PG (0.1 cm^3) was added to 9-12. • 3. Ethanol (0.1 cm^3) was added to No. 5-8. • 4. Deionized water (0.3 cm^3) was added to No. 1-4, deionized water (0.4 cm^3) was added to No. 17-20, 25-28, 33-36, 41-44, 49-52, 57-60, and 65-68. • 5. Liposome (0.2 cm^3) was added to No. 1-4, 5-8, 9-12, 13-16, 21-24, 29-32, 37-40, 45-48, 53-56 and 61-64. • 6. PBS (0.5 cm^3) was added to all tubes. • 7. Ferric chloride (0.1 cm^3, 1 mM) was added to No. 5-8, 9-12, 13-16, 21-24, 29-32, 37-40, 45-48, 53-56, and 61-64. • 8. Ascorbic acid (0.1 cm^3, 1 mM) was added to No. 5-8, 9-12, 13-16, 21-24, 29-32, 37-40, 45-48, 53-56 and 61-64. • 9. The tubes were incubated at 37° C. for 30 min. • 10. BHT (0.1 cm^3, 2%), TBA (0.5 cm^3, 1%) and HCl (0.5 cm^3, 25%) were added to all tubes. • 11. The tubes were heated at 85-90° C. for […]. • 12. The tubes were removed from heater and cooled. • 13. N-Butanol (2.5 cm^3) was added to all tubes. The tubes were then shaken to mix and spun at 3500 rpm at room temperature for 10 min. • 14. N-Butanol (2.5 cm^3) was removed and placed in cuvettes. • 15. Absorbance at 532 nm on a spectrophotometer was recorded, using n-butanol as blank. • 16. The mean and standard deviation were calculated. The % inhibition was calculated using equation (1).
[formula] • All data are expressed and mean±SEM (n=4). % inhibition was used to construct the graph and calculate IC50.

Setting [3] is: Homo sapiens, Keratinocyte, 72 h.
[4] abbreviates: Homo sapiens, Keratinocyte, 72 h, HPV-16 immortalized human keratinocytes, 3 days incubation.
The mark [5] stands for this setting: HPV-16 immortalized human keratinocytes, 3 days incubation.

For `COc1cc(OC)c2[nH]cc(C(C[N+](=O)[O-])C[N+](=O)[O-])c2c1` [5,7-Dimethoxy-3-bis(nitromethyl)methylindole], the “anti-proliferative activity (in words)” value in test [1] was “anti-proliferative effect”. Moreover, the IC50 came out at 20.2 µM in test [1] (setting [3]) and 1660 µM in test [2].

Take `COc1ccc2[nH]cc(C3C=NN(C(C)=O)C3)c2c1` (stereo not shown) [1-Acetyl-4,5-dihydro-4-(5′-methoxyindol-3′-yl)-1H-pyrazole]: in test [1], the “anti-proliferative activity (in words)” value is “much more activity than melatonin”. Further, in test [1] (setting [4]), the IC50 stood at 150 µM. Also, in test [2], the IC50 worked out at 210 µM and the “antioxidant activity (in words)” value is recorded as “almost the same antioxidant activity as melatonin”.

As for `COc1cc(OC)c2[nH]ccc2c1C1C=NN(C(C)=O)C1` (stereo not shown) [1-Acetyl-4,5-dihydro-4-(5′,7′-dimethoxyindol-4′-yl)-1H-pyrazole], the IC50 stood at 355 µM in test [1] (setting [4]) and 1790 µM in test [2].

Take `COc1cc(OC)c2[nH]ccc2c1C(C[N+](=O)[O-])C[N+](=O)[O-]` [5,7-Dimethoxy-4-{2′-nitro-1′-(nitromethyl)ethyl}indole]: the IC50 in test [1] (setting [3]) was found to be 145 µM; in test [2], 3970 µM.

As for `CC(=O)NCCc1c[nH]c2ccc(O)cc12` [N-Acetylseratonin, N-acetylserotonin, reference compound], the figures for the IC50 in test [1] (setting [5]) and in test [2] were above 917 µM and 750 µM, respectively. The “anti-proliferative activity (in words)” value in test [1] was “inactive”.

As to N-ethylformylmelatonin, in test [1], the “anti-proliferative activity (in words)” value is “much more activity than melatonin”. Besides, the “antioxidant activity (in words)” value in test [2] was “almost the same antioxidant activity as melatonin”.

As for `COc1cc(OC)c2[nH]ccc2c1C=C[N+](=O)[O-]` [5,7-Dimethoxy-4-(2-nitroethenyl)-indole], in test [1], the “anti-proliferative activity (in words)” value was “very low IG50 values comparative to dithranol”. In addition, the IC50 is 6.62 µM in test [1] (setting [4]) and 600 µM in test [2].

With `COc1ccc2[nH]cc(CCN)c2c1OC` [4,5-Dimethoxytryptamine], the results for the IC50 in test [1] (setting [5]), in test [1] (setting [4]) and in test [2] were 82.5 µM, below 100 µM and 97 µM, respectively.

Consider `COc1ccc2[nH]cc(C=C[N+](=O)[O-])c2c1OC` [4,5-Dimethoxy-3-(2-nitroethenyl)-indole], for which the “anti-proliferative activity (in words)” value in test [1] was “very low IG50 values comparative to dithranol”. Also, the IC50 is 22 µM in test [1] (setting [4]) and 440 µM in test [2].

Take `COc1cc(OC)c2[nH]ccc2c1CCN` [4-(2-Aminoethyl)-5,7-dimethoxyindole]: the IC50 was 53.9 µM in test [1] (setting [5]), below 100 µM in test [1] (setting [4]) and 51 µM in test [2].

Regarding `COc1ccc2[nH]cc(C=C[N+](=O)[O-])c2c1` [5-Methoxy-3-(2-nitroethenyl)-indole], the “anti-proliferative activity (in words)” value in test [1] is “anti-proliferative effect”. In addition, the IC50 worked out at 15.5 µM in test [1] (setting [4]) and 2510 µM in test [2].

Regarding `COc1cc(OC)c2[nH]cc(C=C[N+](=O)[O-])c2c1` [5,7-Dimethoxy-3-(2-nitroethenyl)-indole], the “anti-proliferative activity (in words)” value in test [1] is given as “very low IG50 values comparative to dithranol”. Further, the IC50 stood at 13.5 µM in test [1] (setting [4]) and 810 µM in test [2].

Regarding `COc1ccc2[nH]cc(C(C[N+](=O)[O-])C[N+](=O)[O-])c2c1OC` [4,5-Dimethoxy-3-bis(nitromethyl)methylindole], the IC50 in test [1] (setting [3]) came out at 126 µM; in test [2], 1910 µM.

For `NCCc1c[nH]c2ccc(O)cc12` [serotonin, reference compound], the “anti-proliferative activity (in words)” value in test [1] was “inactive”.

As for `COc1ccc2[nH]cc(CCNC(C)=O)c2c1OC` [4-Methoxymelatonin], the “anti-proliferative activity (in words)” value in test [1] is on record as “much more activity than melatonin”. Besides, the IC50 in test [1] (setting [4]) is 119 µM. For the same compound, in test [2], the IC50 came to 280 µM and the “antioxidant activity (in words)” value was “almost the same antioxidant activity as melatonin”.

As to `COc1ccc2[nH]cc(CCNC(C)=O)c2c1` [Melatonin], the “anti-proliferative activity (in words)” value in test [1] was “inactive”. For the same compound, the IC50 in test [1] (setting [4]) was above 862 µM.
